Data set [1] in a line: Conversion of the crystalline form in aqueous media. Format: physicochemical. The text has this: International patent application PCT/GB2006/002471 (WO2007/007041) discloses the Agent in 2 different crystalline forms (Example 39k). […] This form will hereinafter be referred to as Form A′. The preparation of Form A is also described in the Example hereinafter.
This form of the Agent will hereinafter be referred to as Form B.

Data set [2] in a line: Competitive slurries of Form A and Form B in a range of solvents. Format: physicochemical. The text has this:
Form B also has a much higher melting endotherm.

As for `CC(C)Oc1cc(Oc2cnc(C(=O)N3CCC3)cn2)cc(C(=O)Nc2cc[nH]n2)c1` [Form A′, 3-{[5-(azetidin-1-ylcarbonyl)pyrazin-2-yl]oxy}-5-[(1-methylethyl)oxy]-N-1H-pyrazol-3-ylbenzamide], in data set [1], the “conversion to other forms in aqueous media” value (shortened to “conversion to other forms”) is recorded as “convert to the amorphous form”. Turning to `CC(C)Oc1cc(Oc2cnc(C(=O)N3CCC3)cn2)cc(C(=O)Nc2cc[nH]n2)c1` [Form A, 3-{[5-(Azetidin-1-ylcarbonyl)pyrazin-2-yl]oxy}-5-[(1-methylethyl)oxy]-N-1H-pyrazol-3-ylbenzamide], the “conversion to other forms” value in data set [1] is recorded as “convert to the amorphous form”. As to `CC(C)Oc1cc(Oc2cnc(C(=O)N3CCC3)cn2)cc(C(=O)Nc2cc[nH]n2)c1` [Form B, 3-{[5-(azetidin-1-ylcarbonyl)pyrazin-2-yl]oxy}-5-[(1-methylethyl)oxy]-N-1H-pyrazol-3-ylbenzamide], the “conversion to other forms” value in data set [1] was “does not significantly convert to other forms”. The “relative stability of crystalline forms in competitive slurries” value in data set [2] is “most stable form”.

(Values after US20080153800A1, “NOVEL CRYSTALLINE COMPOUND” (AstraZeneca AB, priority 2006, published 2008).)
